As a reminder, the EC50 is the concentration at which the effect is half-maximal.

Structures are written as SMILES. Where a SMILES comes first, the peptide text is derived from it. [ ]: non-standard residue; d: D form.

This is an account of results in patent publication EP4775589A1, “PHARMACEUTICAL COMPOSITION COMPRISING A PEPTIDE OR A COMBINATION OF PEPTIDES AGONISTIC TO THE MAS, AT1 AND AT2 RECEPTORS” (Pontificia Universidad Católica de Chile, priority 2023, dated 2025).

The test deals with aortic rings pre-contracted with phenylephrine. Also on record: species or system Wistar Kyoto rats. Here is the method:
Ten-week-old male Wistar Kyoto rats were anesthetized with ketamine (35 mg/kg) and xylazine (7 mg/kg) administered intraperitoneally. The aortas were removed, dissected from the extravascular connective tissue, and cut into 3 mm long rings in fresh Krebs buffer pH 7.4 (KRB, 120 mM NaCl, 25 mM NaHCO3, 5 mM glucose, 4.8 mM KCI, 2.5 mM CaCl2, 1.2 mM MgSO4, […], and 1.2 mM KH2PO4) freshly bubbled with 5% CO2 in air. They were then mounted on a wire myograph (DMT 620M) and placed in an organ bath with KRB, pH 7.4 at 37°C with constant bubbling and equilibrated for 30 min at a tension of 1.5 g. The vasodilator response of ^DH^DF^DP^DH^DI^DY^DV^DR^DD^LD^LR^LV^LY^LI^LH^LP (SEQ ID NO: 1), which corresponds to a fusion of the angiotensin-(1-9) retro-enantio peptide (D-amino acids, N-terminal to C-terminal direction: ^DH^DF^DP^DH^DI^DY^DV^DR^DD (SEQ ID NO: 2)) and the angiotensin-(1-7) peptide (L-amino acids, N-terminal to C-terminal direction: ^LD^LR^LV^LY^LI^LH^LP (SEQ ID NO: 3) were evaluated in dose-response curves [10^-18 to 10^-4 M] to these molecules in baths with aortic rings pre-contracted with phenylephrine 10^-7 M. Carbacol (10^-6-10^-4 M) was used as a relaxation control. The peptides were added in cumulative concentrations to the baths when the vasoconstrictor response to phenylephrine reached its maximum level. […]

Compound `CC[C@@H](C)[C@@H](NC(=O)[C@@H](Cc1c[nH]cn1)NC(=O)[C@H]1CCCN1C(=O)[C@@H](Cc1ccccc1)NC(=O)[C@H](N)Cc1c[nH]cn1)C(=O)N[C@H](Cc1ccc(O)cc1)C(=O)N[C@@H](C(=O)N[C@H](CCCNC(=N)N)C(=O)N[C@H](CC(=O)O)C(=O)O)C(C)C` [RI-Ang-(1-9), ^DH^DF^DP^DH^DI^DY^DV^DR^DD] (H-[dH][dF][dP][dH][dI][dY][dV][dR][dD]-OH) registered an EC50 of 76.7 pM.
As for `CC[C@@H](C)[C@@H](NC(=O)[C@@H](Cc1c[nH]cn1)NC(=O)[C@H]1CCCN1C(=O)[C@@H](Cc1ccccc1)NC(=O)[C@H](N)Cc1c[nH]cn1)C(=O)N[C@H](Cc1ccc(O)cc1)C(=O)N[C@@H](C(=O)N[C@H](CCCNC(=N)N)C(=O)N[C@H](CC(=O)O)C(=O)N[C@@H](CC(=O)O)C(=O)N[C@@H](CCCNC(=N)N)C(=O)N[C@H](C(=O)N[C@@H](Cc1ccc(O)cc1)C(=O)N[C@H](C(=O)N[C@@H](Cc1c[nH]cn1)C(=O)N1CCC[C@H]1C(=O)O)[C@@H](C)CC)C(C)C)C(C)C` [HP16, ^DH^DF^DP^DH^DI^DY^DV^DR^DD^LD^LR^LV^LY^LI^LH^LP], the EC50 was 5.09 pM.
